Source: patent US20240376154A1, “BIS-INTERCALATING PEPTIDES, CONJUGATES AND METHODS OF USE” (ZYMEWORKS BC INC., priority 2023, published 2024)

Legend:
[1] = system: IGROV-1 (Ovarian Adenocarcinoma); experiment: Cell proliferation assay, IGROV-1; type: cell-based; conditions: 5 nights
Protocol: (§1) The ability of Compound 419 and Compound 424 to inhibit proliferation of tumour cells in vitro was measured by a cell proliferation assay using the following tumour cell lines: IGROV-1 (Ovarian Adenocarcinoma, NCI), JEG-3 (Placental Choriocarcinoma, AddexBio (C0030003)) and OVKATE (Ovarian Adenocarcinoma, Japanese Collection of Research Bioresources (JCRB) (JCRB1044)).
(§2) Cell lines were cultured as per vendor instructions prior to running the cell proliferation assay. Briefly, on the day prior to adding compound, cells (50 μL/well, 1000 cells/well) were added to sterile, tissue culture (TC)-treated, 384-well plates (ThermoFisher Scientific, Catalogue #164610) and incubated overnight at 37° C./5% CO2 to allow the cells to adhere to the plate surface. The next day, in a sterile, V-bottom, 96-well plate, compounds were titrated 1:3 in complete growth medium, creating a 10-point dose response titration with compounds at 3.5-times the desired final concentration. Control wells with no compound (growth medium only) were included for each compound titration in 96-well dilution plates. 20 uL from the 10-point dose response titration were added to the 384-well plate containing the seeded cells, in duplicate. Plates were incubated at 37° C./5% CO2 for 5 nights. After 5-night incubation, cell viability was quantified by the addition of 15 uL/well of CellTiter-Glo® (Promega, Catalogue #G7572) and incubation at room temperature for 30 minutes. After 30-minute incubation, luminescence was measured using a microplate luminometer (BioTek® Synergy™ H1 Microplate Reader). The resulting relative light units (RLU values) were converted to % cytotoxicity using the growth medium only control wells mentioned above:
(§3) Data was fit into 4-parameter logistic to curves using non-linear regression methods available with GraphPad Prism software (GraphPad Software, Inc.).

[2] = system: JEG-3 (Placental Choriocarcinoma); experiment: Cell proliferation assay, JEG-3; type: cell-based; conditions: 5 nights
Protocol: as §1, §2, §3

[3] = system: OVKATE (Ovarian Adenocarcinoma); experiment: Cell proliferation assay, OVKATE; type: cell-based; conditions: 5 nights
Protocol: as §1, §2, §3

[4] = Stability in female mouse plasma; type: in vitro ADME; conditions: 37° C., 24 h
Protocol: The stability of exemplary compounds of general Formula I in mouse plasma was evaluated as follows.
Compounds were incubated at 1 μM in duplicate in female mouse plasma, 250 μL final volume, at 37° C. for 24 h. Aliquots were sampled at 0, 15, 30, 60, 120, 240, 480 and 1440 min. Proteins were precipitated by addition of 5 volumes of cold methanol. After centrifugation 10000×g for 10 min, the residual concentration of compound in the supernatant was measured using an appropriate LC-MS/MS method. The measured concentrations were expressed as a function of time through a one-phase decay exponential regression calculated using GraphPad Prism software (GraphPad Software, Inc.) to generate the plasma half-life for each compound.

[5] = Lipophilicity by experimental HPLC retention time; type: physicochemical; conditions: HPLC retention time as measure of lipophilicity; C18, 10 to 90% CH3CN/H2O with 0.1% FA over 25 min
Summary of the method: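 Reversed-phase HPLC with diode array detection on a Kinetex EVO C18 150×4.6, 2.6 μm column. Gradient 10 to 90% CH3CN/H2O with 0.1% FA over 25 min; retention time serves as the lipophilicity measure.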

[6] = system: tumour cells (at least 4 of a panel of ovarian, breast, lung, pancreatic, placenta, colon cell lines); experiment: In vitro cytotoxicity (cell proliferation, CellTiter-Glo), average over tumour cell line panel; type: cell-based; conditions: average pIC50 on all cell lines tested; 5 nights incubation; CellTiter-Glo
Summary of the method: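 Each cell line seeded at ~1000 cells/well and left to adhere overnight, then given a 10-point 1:3 compound titration for 5 nights at 37° C, 5% CO2. Viability read by CellTiter-Glo luminescence; IC50 per line, reported as pIC50 averaged across at least 4 lines.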

herring sperm DNA = experiment: DNA melting temperature by differential scanning calorimetry (DSC); type: binding; conditions: DSC; herring sperm DNA; DNA melting temperature = 68° C.
Summary of the method: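 Herring sperm DNA at 1 mg/mL (1.4 mM base pair) in BPE buffer, pH 7.0, equilibrated with test article (10 mM DMSO stock) for >3 h, insolubles removed by centrifugation. Scanned 25 to 110° C. at 1° C./min; melting temperature taken from the DSC melting curve.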

| SMILES | EC50 [1] | EC50 [2] | EC50 [3] | plasma stability (in words) ([4]; 1 μM) | HPLC [5] | pIC50 (average) [6] | DNA melt (° C.) (herring sperm DNA) | half-life at 1 μM ([4]; female, mouse, plasma) |
| --- | --- | --- | --- | --- | --- | --- | --- | --- |
| CCCN1CC(=O)N(C)[C@@H](C(C)C)C(=O)NC[C@@H](NC(=O)c2nc3ccccc3cc2O)C(=O)N2CCCC[C@H]2C(=O)NCC(=O)N(CCC)CC(=O)N(C)[C@@H](C(C)C)C(=O)NC[C@@H](NC(=O)c2nc3ccccc3cc2O)C(=O)N2CCCC[C@H]2C(=O)NCC1=O [Compound 419, N,N′-((7R,11S,19aS,26R,30S,38aS)-11,30-diisopropyl-12,31-dimethyl-6,10,13,16,19,25,29,32,35,38-decaoxo-15,34-dipropylhexatriacontahydro-2H,6H-dipyrido[1,2-a:1′,2′-q][1,4,7,10,13,17,20,23,26,29]decaazacyclodotriacontine-7,26-diyl)bis(3-hydroxyquinoline-2-carboxamide)] | 11.5 nM | 6.9 nM | 24.1 nM | – | – | – | – | – |
| C[C@H]1NC(=O)[C@@H]2CCCCN2C(=O)CN(C)C(=O)CNC(=O)[C@@H]2CCCCN2C(=O)[C@H](NC(=O)c2nc3ccccc3cc2O)[C@@H](C)NC(=O)[C@@H]2CCCCN2C(=O)CN(C)C(=O)CNC(=O)[C@@H]2CCCCN2C(=O)[C@@H]1NC(=O)c1nc2ccccc2cc1O [Quinaldopeptin, quinaldopeptin, reference compound] | 6.5 nM | 9.8 nM | 14.8 nM | stability over the course of the experiment | 16.7 min | 8.0 | – | – |
| CC(C)[C@H]1C(=O)OC[C@@H](NC(=O)c2nc3ccccc3cc2O)C(=O)N2CCCC[C@H]2C(=O)NCC(=O)N(C)CC(=O)N(C)[C@@H](C(C)C)C(=O)OC[C@@H](NC(=O)c2nc3ccccc3cc2O)C(=O)N2CCCC[C@H]2C(=O)NCC(=O)N(C)CC(=O)N1C [Sandramycin, N,N′-((7R,11S,19aS,26R,30S,38aS)-11,30-diisopropyl-12,15,31,34-tetramethyl-6,10,13,16,19,25,29,32,35,38-decaoxodotriacontahydro-2H,6H,10H,25H-dipyrido[2,1-b1:2′,1′-l][1,17]dioxa[4,7,10,13,20,23,26,29]octaazacyclodotriacontine-7,26-diyl)bis(3-hydroxyquinoline-2-carboxamide), reference compound] | 1.6 nM | 3.3 nM | 0.8 nM | – | 21.6 min | 9.0 | 102 °C | 5.9 h |
